Test system: U87MG cells
Assay: Cytotoxicity assay (cell viability, CellTiter 96 Aqueous MTS)
Type: cell-based
Conditions: Homo sapiens, U-87 MG, 72 h, 72 hours incubation, starting concentration 50 uM, 9 point half log dilution, average where tested repeatedly
Protocol: Example 3: Cytotoxicity Assay
U87MG cells were plated at a density of 7×10^3 cells/well and allowed to seed overnight. Cells were then treated with compounds from Table 1 or CMPD-1 (4-(2′-fluoro-[1,1′-biphenyl]-4-yl)-N-(4-hydroxyphenyl)butanamide as a positive control) were added to cells at a starting concentration of 50 uM, with a 9 point half log dilution, and incubated for 72 hours prior to viability determination. IC50 values were calculated from cell viability as measured using the CellTiter 96® Aqueous MTS reagent from Promega©, and the results are shown in Table 2.

| SMILES | IC50 [µM] |
| --- | --- |
| O=C(CCCc1ccc(-c2ccccc2F)cc1)Nc1ccc2[nH]ncc2c1 [Compound 4, 4-(2′-fluoro-[1,1′-biphenyl]-4-yl)-N-(1H-indazol-5-yl)butanamide] | 1 to 5 |
| O=C(CCCc1ccc(-c2ccccc2F)cc1)Nc1ccc2[nH]ccc2c1 [Compound 6, 4-(2′-fluoro-[1,1′-biphenyl]-4-yl)-N-(1H-indol-5-yl)butanamide] | 1 to 5 |
| O=C(CCCc1ccc(-c2ccccc2F)cc1)Nc1ccc(O)nc1 [Compound 8, 4-(2′-fluoro-[1,1′-biphenyl]-4-yl)-N-(6-hydroxypyridin-3-yl)butanamide] | > 5 |
| O=C(CCCc1ccc(-c2ccccc2F)cc1)Nc1cccnc1 [Compound 37, 4-(2′-fluoro-[1,1′-biphenyl]-4-yl)-N-(pyridin-3-yl)butanamide] | 0.501 to 1 |
| O=C(CCCc1ccc(-c2ccccc2F)cc1)Nc1nccs1 [Compound 38, 4-(2′-fluoro-[1,1′-biphenyl]-4-yl)-N-(thiazol-2-yl)butanamide] | > 5 |
| COc1ccc(NC(=O)CCCc2ccc(-c3ccccc3F)cc2)cn1 [Compound 39, 4-(2′-fluoro-[1,1′-biphenyl]-4-yl)-N-(6-methoxypyridin-3-yl)butanamide] | > 5 |
| O=C(CCCc1ccc(-c2ccccc2F)cc1)Nc1ccccn1 [Compound 40, 4-(2′-fluoro-[1,1′-biphenyl]-4-yl)-N-(pyridin-2-yl)butanamide] | > 5 |
| O=C(CCCc1ccc(-c2ccccc2F)cc1)NCc1cccnc1 [Compound 41, 4-(2′-fluoro-[1,1′-biphenyl]-4-yl)-N-(pyridin-3-ylmethyl)butanamide] | > 5 |
| O=C(CCCc1ccc(-c2ccccc2F)cc1)NCc1ccncc1 [Compound 42, 4-(2′-fluoro-[1,1′-biphenyl]-4-yl)-N-(pyridin-4-ylmethyl)butanamide] | 1 to 5 |
| O=C(CCCc1ccc(-c2ccccc2F)cc1)NCc1ccccn1 [Compound 43, 4-(2′-fluoro-[1,1′-biphenyl]-4-yl)-N-(pyridin-2-ylmethyl)butanamide] | 1 to 5 |
| COc1ccc(CNC(=O)CCCc2ccc(-c3ccccc3F)cc2)cc1 [Compound 44, 4-(2′-fluoro-[1,1′-biphenyl]-4-yl)-N-(4-methoxybenzyl)butanamide] | 0.501 to 1 |
| Cc1ccc(NC(=O)CCCc2ccc(-c3ccccc3F)cc2)cn1 [Compound 45, 4-(2′-fluoro-[1,1′-biphenyl]-4-yl)-N-(6-methylpyridin-3-yl)butanamide] | < 0.5 |
| O=C(CCCc1ccc(-c2ccccc2F)cc1)Nc1cn[nH]c1 [Compound 47, 4-(2′-fluoro-[1,1′-biphenyl]-4-yl)-N-(1H-pyrazol-4-yl)butanamide] | > 5 |
| Cn1cc(CNC(=O)CCCc2ccc(-c3ccccc3F)cc2)cn1 [Compound 48, 4-(2′-fluoro-[1,1′-biphenyl]-4-yl)-N-((1-methyl-1H-pyrazol-4-yl)methyl)butanamide] | 1 to 5 |
| O=C(CCCc1ccc(-c2ccccc2F)cc1)NCC1CC1 [Compound 50, N-(cyclopropylmethyl)-4-(2′-fluoro-[1,1′-biphenyl]-4-yl)butanamide] | 1 to 5 |
| O=C(CCCc1ccc(-c2ccccc2F)cc1)Nc1ccc(C(F)(F)F)nc1 [Compound 51, 4-(2′-fluoro-[1,1′-biphenyl]-4-yl)-N-(6-(trifluoromethyl)pyridin-3-yl)butanamide] | > 5 |
| CN(C(=O)CCCc1ccc(-c2ccccc2F)cc1)c1cccnc1 [Compound 52, 4-(2′-fluoro-[1,1′-biphenyl]-4-yl)-N-methyl-N-(pyridin-3-yl)butanamide] | > 5 |

| SMILES | IC50 [µM] |
| --- | --- |
| O=C(CCCc1ccc(-c2ccccc2F)cc1)Nc1ccc2c(c1)OCC(=O)N2 [Compound 53, 4-(2′-fluoro-[1,1′-biphenyl]-4-yl)-N-(3-oxo-3,4-dihydro-2H-benzo[b][1,4]oxazin-7-yl)butanamide] | 0.501 to 1 |
| O=C(CCCc1ccc(-c2ccccc2F)cc1)NC1CCC(F)(F)CC1 [Compound 54, N-(4,4-difluorocyclohexyl)-4-(2′-fluoro-[1,1′-biphenyl]-4-yl)butanamide] | > 5 |
| O=C(CCCc1ccc(-c2ccccc2F)cc1)NC1COC1 [Compound 55, 4-(2′-fluoro-[1,1′-biphenyl]-4-yl)-N-(oxetan-3-yl)butanamide] | 1 to 5 |
| O=C(CCCc1ccc(-c2ccccc2F)cc1)Nc1ccc2[nH]c(=O)[nH]c2c1 [Compound 58, 4-(2′-fluoro-[1,1′-biphenyl]-4-yl)-N-(2-oxo-2,3-dihydro-1H-benzo[d]imidazol-5-yl)butanamide] | > 5 |
| O=C(CCCc1ccc(-c2ccccc2F)cc1)Nc1ccc2c(c1)CNC2=O [Compound 59, 4-(2′-fluoro-[1,1′-biphenyl]-4-yl)-N-(1-oxoisoindolin-5-yl)butanamide] | > 5 |
| O=C(CCCc1ccc(-c2ccccc2F)cc1)NC1CCC(O)CC1 (stereo not shown) [Compound 62, 4-(2′-fluoro-[1,1′-biphenyl]-4-yl)-N-(4-hydroxycyclohexyl)butanamide] | > 5 |
| O=C(CCCc1ccc(-c2ccccc2F)cc1)Nc1ccon1 [Compound 63, 4-(2′-fluoro-[1,1′-biphenyl]-4-yl)-N-(isoxazol-3-yl)butanamide] | > 5 |
| O=C(NCCCc1ccc(-c2ccccc2F)cc1)c1cccnc1 [Compound 64, N-(3-(2′-fluoro-[1,1′-biphenyl]-4-yl)propyl)nicotinamide] | < 0.5 |
| O=C(NCCCc1ccc(-c2ccccc2F)cc1)c1cccnn1 [Compound 65, N-(3-(2′-fluoro-[1,1′-biphenyl]-4-yl)propyl)pyridazine-3-carboxamide] | > 5 |
| O=C(NCCCc1ccc(-c2ccccc2F)cc1)c1cn[nH]c1 [Compound 66, N-(3-(2′-fluoro-[1,1′-biphenyl]-4-yl)propyl)-1H-pyrazole-4-carboxamide] | > 5 |
| O=C(NCCCc1ccc(-c2ccccc2F)cc1)c1cncnc1 [Compound 67, N-(3-(2′-fluoro-[1,1′-biphenyl]-4-yl)propyl)pyrimidine-5-carboxamide] | < 0.5 |
| O=C(NCCCc1ccc(-c2ccccc2F)cc1)c1ccc2[nH]nnc2c1 [Compound 70, N-(3-(2′-fluoro-[1,1′-biphenyl]-4-yl)propyl)-1H-benzo[d][1,2,3]triazole-5-carboxamide] | > 5 |
| Cc1ccc(C(=O)NCCCc2ccc(-c3ccccc3F)cc2)cn1 [Compound 71, N-(3-(2′-fluoro-[1,1′-biphenyl]-4-yl)propyl)-6-methylnicotinamide] | < 0.5 |
| O=C(NCCCc1ccc(-c2ccccc2F)cc1)c1ccc2[nH]ncc2c1 [Compound 73, N-(3-(2′-fluoro-[1,1′-biphenyl]-4-yl)propyl)-1H-indazole-5-carboxamide] | 1 to 5 |
| O=C(NCCCc1ccc(-c2ccccc2F)cc1)c1ccc2[nH]ccc2c1 [Compound 74, N-(3-(2′-fluoro-[1,1′-biphenyl]-4-yl)propyl)-1H-indole-5-carboxamide] | 0.501 to 1 |
| O=C(NCCCc1ccc(-c2ccccc2F)cc1)C1CC(F)(F)C1 [Compound 75, 3,3-difluoro-N-(3-(2′-fluoro-[1,1′-biphenyl]-4-yl)propyl)cyclobutane-1-carboxamide] | > 5 |
| O=C(NCCCc1ccc(-c2ccccc2F)cc1)c1cnccn1 [Compound 76, N-(3-(2′-fluoro-[1,1′-biphenyl]-4-yl)propyl)pyrazine-2-carboxamide] | > 5 |

From patent US12247010B2, “Tubulin inhibitors” (LIN BIOSCIENCE PTY LTD., priority 2017, dated 2025)
